Several values for one entry are separate records, joined by “and”; a condition that tells them apart may be missing. Equal entries are not always repeated. Entries after “also recorded” stand apart in the source; their conditions may differ.
Key:
[1] = test system: mouse cardiomyocytes; experiment: Contractility of isolated mouse cardiomyocytes; type: cell-based
From the text: To observe whether the effects of eggmanone administration are cardiomyocyte specific or due to off target effects, the contractility of individual mouse cardiomyocytes and the tone of ascending/descending aorta was observed. In mouse cardiomyocytes, Egm caused a 50% increase in contractility over vehicle control (FIG. 32).

[2] = test system: hiPSC-CMs; experiment: Contractile function of hiPSC-derived cardiomyocytes; type: cell-based, human
[3] = test system: Daoy cells; experiment: Daoy cell proliferation (PH3 staining) and apoptosis (TUNEL); type: cell-based, human; conditions: 10 μM, 48-hours
[4] = test system: RSV; experiment: RSV infection in mice (body weight, lung plaque assay); conditions: 20 mg/kg IP 3× daily
[5] = test system: panel of 442 kinases; experiment: Kinase profiling assays (DiscoverRx, phage display model); type: binding
Protocol: (§1) Profiling assays were not performed in-house. Compounds were shipped to the following companies for possible target identification: Kinase profiling assays were performed by DiscoverRx (San Diego, Calif.) using a phage display model; GPCR profiling assays were performed by Millipore (St. Louis, Mo.) using in cells expressing Gα15, a promiscuous G protein that enhances GPCR coupling to downstream Ca^2+ signaling pathways; phosphatase profiling assay was performed by Millipore (Dundee, UK).

[6] = test system: panel of 158 GPCRs; experiment: Millipore-GPCR Panel (cells expressing Gα15, Ca2+ signaling); type: cell-based
Protocol: as §1

[7] = test system: panel of 21 phosphatases; experiment: Phosphatase profiling assay (Millipore); type: biochemical, human
Protocol: as §1

[8] = test system: PDE4 isoforms; experiment: In vitro PDE dose-response assays (BPS Biosciences); type: biochemical; conditions: isoforms of PDE4 A-D; read-out: IC50 range over PDE4 isoforms
Protocol: In vitro PDE profiling and dose-response assays were performed by BPS Biosciences (San Diego, Calif.). Kinetic Mechanism of inhibition studies were conducted by Millipore (St. Louis, Mo.). In brief, the PDE assay measures fluorescent polarization of FAM-AMP as FAM-cAMP is converted to FAM-AMP by PDE), the binding agent.
A series of dilutions of the test compound were prepared with 10% DMSO in assay buffer and 5 μl of the dilution was added to a 50 μl reaction so that the final concentration of DMSO is 1% in all of reactions. All of the PDE enzymatic reactions were conducted in duplicate at room temperature for 60 minutes in a 50 μl mixture containing PDE assay buffer (10 mM Tris-HCl, pH7.4, 10 mM MaCl2, 0.05% Tween 20), 100 nM FAM-cAMP, a PDE enzyme and a test compound.
After the enzymatic reaction, 100 μl of a binding solution (1:100 dilution of the binding agent, which contains the nano beads that recognize FAM-AMP, with the binding agent diluent) was added to each reaction and the reaction was performed at room temperature for 60 minutes. Fluorescence intensity was measured at an excitation of 485 nm and an emission of 528 nm using a Tecan Infinite M1000 microplate reader. Assays done by Millipore were conducted similarly with changes noted below: […]

[9] = target: T1, PDE1A1 (Homo sapiens, UniProt P54750); experiment: In vitro PDE assay; type: biochemical
T1 construct: purchased BPS Biosciences (San Diego, Calif.)
In short: (§2)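 Recombinant human PDE incubated 60 min at room temperature in duplicate with 100 nM FAM-cAMP in 10 mM Tris-HCl pH 7.4, 10 mM MgCl2, 0.05% Tween 20, 1% DMSO. FAM-AMP product captured by bead binding agent for 60 min, then fluorescence read at 485/528 nm.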

[10] = target: T2, PDE3A (Homo sapiens, UniProt Q14432); experiment: In vitro PDE assay; type: biochemical
T2 construct: purchased BPS Biosciences (San Diego, Calif.)
In short: as §2

[11] = target: T3, PDE5A1 (Homo sapiens, UniProt O76074); experiment: In vitro PDE assay; type: biochemical
T3 construct: purchased BPS Biosciences (San Diego, Calif.)
In short: as §2

[12] = target: T4, PDE6C (Homo sapiens, UniProt P51160); experiment: In vitro PDE assay; type: biochemical
T4 construct: purchased BPS Biosciences (San Diego, Calif.)
In short: as §2

[13] = target: T5, PDE7A1 (Homo sapiens, UniProt Q13946); experiment: In vitro PDE assay; type: biochemical
T5 construct: purchased BPS Biosciences (San Diego, Calif.)
In short: as §2

[14] = target: T6, PDE9A1 (Homo sapiens, UniProt O76083); experiment: In vitro PDE assay; type: biochemical
T6 construct: purchased BPS Biosciences (San Diego, Calif.)
T6 sequence (O76083 whole entry): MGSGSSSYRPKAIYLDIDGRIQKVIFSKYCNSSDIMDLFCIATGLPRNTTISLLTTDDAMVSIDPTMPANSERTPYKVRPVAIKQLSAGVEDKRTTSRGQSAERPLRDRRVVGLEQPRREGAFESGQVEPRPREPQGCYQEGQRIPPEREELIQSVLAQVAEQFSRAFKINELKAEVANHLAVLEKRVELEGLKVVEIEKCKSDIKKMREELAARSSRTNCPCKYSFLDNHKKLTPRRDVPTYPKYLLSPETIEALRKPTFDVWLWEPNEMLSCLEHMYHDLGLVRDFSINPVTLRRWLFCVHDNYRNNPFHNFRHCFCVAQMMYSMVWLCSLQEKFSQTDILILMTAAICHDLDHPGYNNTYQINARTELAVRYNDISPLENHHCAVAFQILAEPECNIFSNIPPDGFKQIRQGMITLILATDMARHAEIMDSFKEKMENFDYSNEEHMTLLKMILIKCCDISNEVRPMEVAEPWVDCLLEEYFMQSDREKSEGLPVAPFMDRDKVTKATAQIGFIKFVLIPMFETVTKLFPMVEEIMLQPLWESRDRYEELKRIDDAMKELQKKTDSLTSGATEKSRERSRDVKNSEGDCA
In short: as §2

[15] = test system: NIH3T3 cells; experiment: Cell viability of parental NIH3T3 cells; type: cell-based
[16] = test system: Bovine Viral Diarrhea Virus; experiment: BVDV CPE assay; type: cell-based
Protocol: Provided in FIG. 37 are the results from BVDV (Bovine Viral Diarrhea Virus, surrogate for Hepatitis C virus) CPE ([…]) testing done. The assay was repeated with […] (a PDE4B and PDE4D inhibitor). Hi913 (our prototypic PDE4 inhibitor) was tested in half-log concentrations ranging from 100 μM to 0.33 μM. As the stock solution of […] was 10 mM, this meant that the final DMSO concentrations for the highest Hi913 concentrations were 1%, 0.33%, and 0.1%. The normal final DMSO concentrations used is 0.1%, so additional DMSO controls of 1% and 0.33% were included. The Hi913 data for the highest 3 concentrations is normalized to the respective DMSO concentrations. […] The outlier effects at 100 μM are probably due to cytotoxicity at the high drug concentration.

[17] = test system: RSV (respiratory syncytial virus); experiment: RSV CPE / plaque assay in HEp-2 cells; type: cell-based
Protocol: In Table 11, the results of CPE assays following infection of human epidermoid cancer cells (HEp-2) with RSV. Even at 10,000 higher viral titers, our compound achieved complete inhibition at 10 μM. At 1 and 3 μM, the compound achieved over 98% reduction. The exemplary compound alone caused no apparent cytotoxicity at these concentrations.

[18] = test system: cAMP; experiment: FRET-based cAMP sensors in NIH3T3 cells; type: cell-based; conditions: 2 μM
From the text: To visualize changes in cAMP concentrations in individual cells and cellular regions, we utilized two distinct FRET (fluorescence resonance energy transfer)-based cAMP sensors: the Epac-FRET sensor (mTurquoiseΔ-Epac(CD, ΔDEP)-cp173 Venus-Venus)^35, which detects cytosolic cAMP concentration and the PKA-based cAMP sensor (PKAC-YFP and PKARII-CFP combination), which has been used to document changes in local cAMP levels in the centrosome and basal body.

[19] = target: PDE4D3-AKAP450 (Homo sapiens, UniProt Q08499); experiment: PDE4D3 localization and co-immunoprecipitation with AKAP450; type: cell-based; conditions: 5 μM
Sequence of PDE4D3-AKAP450 (Q08499 1-673 isoform Q08499-2): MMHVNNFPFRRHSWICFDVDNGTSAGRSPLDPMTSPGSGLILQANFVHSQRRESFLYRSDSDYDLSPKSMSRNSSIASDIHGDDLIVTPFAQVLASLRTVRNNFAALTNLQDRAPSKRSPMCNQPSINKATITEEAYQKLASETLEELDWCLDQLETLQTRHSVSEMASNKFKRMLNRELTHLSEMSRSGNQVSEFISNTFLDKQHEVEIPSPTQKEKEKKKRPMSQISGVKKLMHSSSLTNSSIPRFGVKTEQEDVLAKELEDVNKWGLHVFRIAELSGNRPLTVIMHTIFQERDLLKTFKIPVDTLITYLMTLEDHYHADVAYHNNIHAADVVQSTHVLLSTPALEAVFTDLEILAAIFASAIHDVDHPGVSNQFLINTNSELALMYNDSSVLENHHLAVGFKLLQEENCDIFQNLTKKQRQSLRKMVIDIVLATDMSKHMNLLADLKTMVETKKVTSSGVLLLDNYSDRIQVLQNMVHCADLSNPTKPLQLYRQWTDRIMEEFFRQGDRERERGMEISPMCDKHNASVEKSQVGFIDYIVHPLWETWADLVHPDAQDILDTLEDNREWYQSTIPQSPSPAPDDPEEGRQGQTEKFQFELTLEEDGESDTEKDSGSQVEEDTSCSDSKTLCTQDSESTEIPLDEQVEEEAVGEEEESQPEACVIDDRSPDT
Sequence of PDE4D3-AKAP450 (Q70FJ1 whole entry partner): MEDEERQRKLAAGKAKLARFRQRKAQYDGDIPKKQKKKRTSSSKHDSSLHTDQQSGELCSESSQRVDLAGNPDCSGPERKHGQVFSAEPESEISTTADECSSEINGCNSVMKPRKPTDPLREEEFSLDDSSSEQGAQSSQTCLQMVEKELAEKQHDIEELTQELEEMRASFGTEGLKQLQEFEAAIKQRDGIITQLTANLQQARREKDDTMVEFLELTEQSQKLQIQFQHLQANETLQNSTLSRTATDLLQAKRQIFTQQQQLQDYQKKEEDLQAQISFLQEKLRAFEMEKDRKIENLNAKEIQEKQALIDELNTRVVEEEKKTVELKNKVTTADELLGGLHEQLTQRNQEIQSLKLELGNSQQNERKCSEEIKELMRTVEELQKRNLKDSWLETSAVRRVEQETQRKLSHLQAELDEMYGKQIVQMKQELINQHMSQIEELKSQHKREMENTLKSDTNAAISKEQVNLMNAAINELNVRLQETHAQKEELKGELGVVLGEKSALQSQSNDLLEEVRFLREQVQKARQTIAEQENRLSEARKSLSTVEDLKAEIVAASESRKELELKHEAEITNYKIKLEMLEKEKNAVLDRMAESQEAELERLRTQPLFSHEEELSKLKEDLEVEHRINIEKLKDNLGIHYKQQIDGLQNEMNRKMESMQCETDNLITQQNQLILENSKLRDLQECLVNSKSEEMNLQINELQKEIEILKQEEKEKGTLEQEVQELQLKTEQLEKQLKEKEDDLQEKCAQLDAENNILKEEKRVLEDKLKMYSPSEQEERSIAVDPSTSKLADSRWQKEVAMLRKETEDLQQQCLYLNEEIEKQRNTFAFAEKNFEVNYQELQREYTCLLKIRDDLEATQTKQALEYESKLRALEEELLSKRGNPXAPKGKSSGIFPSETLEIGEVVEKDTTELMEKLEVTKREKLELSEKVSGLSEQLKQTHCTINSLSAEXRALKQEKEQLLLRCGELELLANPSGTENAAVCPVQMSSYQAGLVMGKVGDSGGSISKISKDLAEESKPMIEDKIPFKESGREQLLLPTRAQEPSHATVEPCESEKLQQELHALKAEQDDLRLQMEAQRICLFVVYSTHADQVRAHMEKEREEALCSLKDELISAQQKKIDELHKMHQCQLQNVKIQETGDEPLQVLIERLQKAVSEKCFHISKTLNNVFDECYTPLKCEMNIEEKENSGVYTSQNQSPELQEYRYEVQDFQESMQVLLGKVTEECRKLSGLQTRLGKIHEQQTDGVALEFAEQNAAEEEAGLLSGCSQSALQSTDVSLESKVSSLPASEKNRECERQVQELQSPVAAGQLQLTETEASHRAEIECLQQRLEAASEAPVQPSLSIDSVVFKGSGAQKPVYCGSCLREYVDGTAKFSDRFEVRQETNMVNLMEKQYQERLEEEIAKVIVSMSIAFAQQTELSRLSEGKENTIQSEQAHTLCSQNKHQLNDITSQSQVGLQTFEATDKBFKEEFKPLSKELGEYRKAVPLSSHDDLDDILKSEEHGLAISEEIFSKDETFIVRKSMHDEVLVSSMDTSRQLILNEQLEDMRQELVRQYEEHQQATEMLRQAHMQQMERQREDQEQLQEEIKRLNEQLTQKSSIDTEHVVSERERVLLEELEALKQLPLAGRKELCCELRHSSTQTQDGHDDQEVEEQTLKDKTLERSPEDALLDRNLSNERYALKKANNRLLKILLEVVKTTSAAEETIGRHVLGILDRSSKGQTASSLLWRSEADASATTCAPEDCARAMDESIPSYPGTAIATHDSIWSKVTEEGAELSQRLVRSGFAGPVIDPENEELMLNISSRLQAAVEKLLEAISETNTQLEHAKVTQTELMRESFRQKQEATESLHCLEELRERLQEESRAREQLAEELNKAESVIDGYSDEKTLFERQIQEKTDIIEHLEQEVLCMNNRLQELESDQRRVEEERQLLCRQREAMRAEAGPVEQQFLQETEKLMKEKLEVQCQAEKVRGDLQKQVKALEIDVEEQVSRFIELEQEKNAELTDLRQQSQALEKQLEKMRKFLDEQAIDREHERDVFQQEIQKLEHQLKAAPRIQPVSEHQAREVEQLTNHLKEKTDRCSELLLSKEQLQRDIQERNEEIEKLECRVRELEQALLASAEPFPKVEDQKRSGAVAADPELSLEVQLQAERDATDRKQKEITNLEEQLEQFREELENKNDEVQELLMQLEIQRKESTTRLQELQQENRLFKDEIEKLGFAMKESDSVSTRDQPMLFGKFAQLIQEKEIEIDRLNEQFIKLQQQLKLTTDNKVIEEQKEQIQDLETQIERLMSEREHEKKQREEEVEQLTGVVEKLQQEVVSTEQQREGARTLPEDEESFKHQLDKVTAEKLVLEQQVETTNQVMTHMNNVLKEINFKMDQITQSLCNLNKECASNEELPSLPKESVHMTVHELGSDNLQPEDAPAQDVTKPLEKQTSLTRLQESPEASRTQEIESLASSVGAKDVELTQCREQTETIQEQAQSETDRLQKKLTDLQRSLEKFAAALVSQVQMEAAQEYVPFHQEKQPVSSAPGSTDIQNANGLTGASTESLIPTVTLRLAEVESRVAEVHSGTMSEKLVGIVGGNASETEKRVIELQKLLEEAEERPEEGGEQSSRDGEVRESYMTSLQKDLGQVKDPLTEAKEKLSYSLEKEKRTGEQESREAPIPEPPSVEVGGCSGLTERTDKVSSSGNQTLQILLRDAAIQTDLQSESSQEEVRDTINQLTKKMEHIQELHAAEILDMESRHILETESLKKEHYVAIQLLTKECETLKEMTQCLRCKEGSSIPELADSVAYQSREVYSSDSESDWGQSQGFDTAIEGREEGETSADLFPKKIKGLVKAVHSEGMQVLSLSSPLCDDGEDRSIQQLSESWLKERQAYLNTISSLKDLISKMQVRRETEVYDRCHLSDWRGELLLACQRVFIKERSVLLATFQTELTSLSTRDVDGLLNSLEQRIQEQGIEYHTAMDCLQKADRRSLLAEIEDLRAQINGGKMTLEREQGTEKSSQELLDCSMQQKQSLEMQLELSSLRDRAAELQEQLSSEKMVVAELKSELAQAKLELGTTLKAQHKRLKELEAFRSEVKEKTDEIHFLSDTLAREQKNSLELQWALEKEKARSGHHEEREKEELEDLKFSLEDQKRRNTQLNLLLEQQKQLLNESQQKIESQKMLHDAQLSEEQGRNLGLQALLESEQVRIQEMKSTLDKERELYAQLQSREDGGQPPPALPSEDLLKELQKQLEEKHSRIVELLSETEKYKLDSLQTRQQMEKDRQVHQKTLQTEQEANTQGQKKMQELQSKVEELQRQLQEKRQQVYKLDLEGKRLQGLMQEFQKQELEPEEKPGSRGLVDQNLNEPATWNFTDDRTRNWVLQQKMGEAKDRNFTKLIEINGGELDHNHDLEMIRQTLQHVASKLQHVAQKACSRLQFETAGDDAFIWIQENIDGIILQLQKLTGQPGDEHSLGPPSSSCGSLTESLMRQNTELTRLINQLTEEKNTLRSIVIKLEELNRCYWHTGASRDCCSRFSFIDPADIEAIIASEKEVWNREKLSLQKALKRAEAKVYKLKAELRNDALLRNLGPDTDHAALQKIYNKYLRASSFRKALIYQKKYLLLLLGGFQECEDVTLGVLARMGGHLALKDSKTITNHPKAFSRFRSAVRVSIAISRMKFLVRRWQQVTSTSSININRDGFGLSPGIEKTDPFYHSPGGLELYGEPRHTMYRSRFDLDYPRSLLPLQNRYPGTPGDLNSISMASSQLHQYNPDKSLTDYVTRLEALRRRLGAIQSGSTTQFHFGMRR

[20] = test system: Dengue; experiment: Dengue viral CPE assay; type: cell-based
From the text: The small molecule PDE4 inhibitors of the presently disclosed subject matter are actively anti-viral in viral CPE (cytopathic effect) assays versus RSV (respiratory syncytial virus), Dengue (1 experiment), and BVDV (bovine viral diarrhea virus, surrogate for human hepatitis C virus). Of note, PDE4 inhibitors are now approved for COPD, for which RSV may be an exacerbating factor).

[21] = test system: Influenza; experiment: Influenza antiviral effect; type: cell-based

C=C(C)Cn1c(SCC(=O)c2cccs2)nc2sc3c(c2c1=O)CCCC3 [EGM, Eggmanone]
increase in contractility over vehicle control [1]: 50% | Contractile function [2]: increased contractile function | Apoptosis (TUNEL staining) [3]: increased apoptosis | Cell proliferation (phospho-histone H3 staining) [3]: decreased cell proliferation | Normalized body weight [4]: slightly lower than that with control | Lung viral titer (plaque assay) ([4]; day 3): significantly reduced viral titer at day 3

C=C(C)Cn1c(SCC(=O)c2cccs2)nc2sc3c(c2c1=O)CCCC3 [Eggmanone, 3-(2-methylallyl)-2-((2-oxo-2-(thiophen-2-yl)ethyl)thio)-5,6,7,8-tetrahydrobenzo[4,5]thieno[2,3-d]pyrimidine-4(3H)-one]
agonist or antagonist activity [5]: did not exhibit significant agonist or antagonist activity | significant inhibition [5]: > 10 µM | agonist or antagonist activity [6]: did not exhibit significant agonist or antagonist activity | significant inhibition [6]: > 10 µM | agonist or antagonist activity [7]: did not exhibit significant agonist or antagonist activity | significant inhibition [7]: > 10 µM | IC50 [8]: 800 to 3000 nM and 800 to 3750 nM | inhibition at 50 µM [9]: < 10% | IC50 [10]: > 50 µM | inhibition at 50 µM [11]: < 10% | inhibition at 50 µM [12]: < 10% | inhibition at 50 µM [13]: < 10% | inhibition at 50 µM [14]: < 10% | Viability of NIH3T3 cells [15]: had no effect on parental NIH3T3 cells | Antiviral effect on BVDV [16]: has antiviral effects | Antiviral effect on RSV [17]: has antiviral effects | Cytosolic FRET signal (Epac-FRET sensor) [18]: had no effect on the cytosolic FRET signal | cAMP levels by PKA-based cAMP sensor [18]: increased cAMP levels only at discrete regions | PDE4D3 localization / physical association with AKAP450 [19]: does not disrupt PDE4D3 localization; also recorded: did not disrupt PDE4D3 localization or physical association with AKAP450 | Antiviral effect on Dengue [20]: has antiviral effects | Antiviral effect on Influenza [21]: has antiviral effects

From patent US10329304B2, “Compounds and methods for inhibition of hedgehog signaling and phosphodiesterase” (Vanderbilt University, priority 2014, dated 2019)
